# Data reported in publication PMC4893612 (Scientific Reports, 2016).
# Tests used:
# non-proteasomal DUBs = tested on: non-proteasomal DUBs; design: method as in PMID 25854145; settings: cited from earlier work
# [1] = design: method as in PMID 25854145; settings: cited from earlier work
# OPM-2 = assay: MTT antiproliferative assay, OPM-2; format: cell-based; settings: Homo sapiens, 72 hours
# Procedure: Cell viability was monitored by the MTT (3-(4,5-dimethylthiazol-2-yl)-2,5-diphenyltetrazolium bromide) assay. For the MTT assay, cells were suspended at 5 × 10^5 cells/ml, and 100 μl aliquots were dispended into 96-well microtiter plates and exposed to drugs as described using DMSO control. At the end of incubations, 10 μl of a stock solution of 5 mg/ml MTT (3-(4,5-dimethylthiazol-2-yl)-2,5-diphenyltetrazolium bromide), was added into each well, and the plates were incubated 4 hours at 37 °C. Formazan crystals were dissolved with 100 μl of 10% SDS/10 mM HCl solution overnight at 37 °C. Since MTT assays are affected by mitochondrial activity, and since OXPHOS is affected by VLX1570 (unpublished observation), we used the acid phosphatase method[49] to determine cell viability in some experiments. After washing twice with PBS, cells were lysed in 100 μl of 0.1 M sodium acetate, 0,1% Triton X-100, p-nitrophenylphosphate (Pierce Biotechnology Inc, Rockford, IL) and incubated for 90 min at 37 °C. At the end of the incubation, 10 μl NaOH was added to each well and A405 was determined.
# USP14 [2] = biological target: T1, USP14 (Homo sapiens, UniProt P54578); assay: Ub-VS labeling of lysates of exposed OPM-2 cells, USP14; format: cell-based; design: endogenous in cells; host or cells: OPM-2 multiple myeloma cells; settings: 0.5 μM, 3 hours
# T1 sequence (P54578 whole entry): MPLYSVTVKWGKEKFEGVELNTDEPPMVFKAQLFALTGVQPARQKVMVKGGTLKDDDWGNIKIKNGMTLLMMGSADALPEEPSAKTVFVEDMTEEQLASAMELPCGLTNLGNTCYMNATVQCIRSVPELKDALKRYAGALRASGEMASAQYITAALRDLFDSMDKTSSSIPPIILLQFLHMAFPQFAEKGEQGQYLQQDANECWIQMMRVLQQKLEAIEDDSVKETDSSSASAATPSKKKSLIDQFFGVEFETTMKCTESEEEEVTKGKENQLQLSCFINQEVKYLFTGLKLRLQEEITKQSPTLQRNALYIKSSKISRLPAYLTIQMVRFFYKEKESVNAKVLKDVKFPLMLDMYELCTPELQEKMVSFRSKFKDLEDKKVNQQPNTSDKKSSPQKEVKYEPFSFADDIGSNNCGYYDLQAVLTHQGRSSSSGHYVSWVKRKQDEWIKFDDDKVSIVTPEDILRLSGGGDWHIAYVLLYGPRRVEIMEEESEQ
# Procedure: Cell extract proteins were resolved by Tris-Acetate PAGE gels (Invitrogen, Carlsbad, CA) and transferred onto a polyvinylidene difluoride (PVDF) membrane for western blotting. For Ub-VS labeling, we lysed cell pellets from control or treated cells with buffer (50 mM HEPES pH 7.4, 250 mM sucrose, 10 mM MgCl2, 2 mM ATP, 1 mM DTT and 1%NP-40) on ice for 30 min and removed debris by centrifugation. We labeled 25 μg of protein with 1 μM Ub-VS for 30 min at 37 °C. We resolved samples by SDS-PAGE and performed immunoblotting. For HA-Ub-VS labeling, we pretreated purified 19S (5 nM) with DMSO or 2.5, 5, 10, 15 or 25μM 1570 for 10 min at room temperature, which followed with labeling with 1 μM HA-Ub-VS for 30 min at 37 °C and immunoblotting.
# [3] = tested on: KMS-11 multiple myeloma cells; format: in vivo; settings: 3 mg/kg intravenous, 10 days; SCID mice
# Procedure: Two different multiple myeloma models were used. Experimental protocols and methods were performed by Accelera (Nerviano, Italy) in accordance with guidelines and with permission from the local ethics committee (Nerviano Medical Sciences (NMS) Ethic Committee). All experimental protocols were approved by the Nerviano Medical Sciences (NMS) Ethic Committee. Study director was Marina Ciomei. SCID female mice were obtained from Charles River, Italy. Body weights at the day of tumor implant were between 19 and 22 grams. Treatment started at day 7 after injection of tumor cells and continued for 10 consequtive days. Mice were monitored daily for mortality and clinical signs. In the KMS-11 model, antitumor efficacy was evaluated in terms of survival increase respect to control. In the RPMI8226 model, the growth of subcutaneous tumors was recorded. […] A gray-scale image of the mice was captured, followed by an overlay of a bioluminescence map representing the spatial distribution of photons detected from cleaved luciferin in the cancer cells expressing luciferase. Signal intensity was quantified using a customized version of the IGOR Pro version 4.09A Software (WaveMetrics, Inc., Lake Oswego, OR) called Living Image version 3.00 (Xenogen). Photon emission was measured as whole-body radiance and the individual regions of interest (ROIs) were manually selected. […]
# 26S proteasome = 26S proteasome (Homo sapiens, UniProt P54578+Q9Y5K5); assay: SPR binding to 26S proteasomes, CM7 chip
# 26S proteasome, sequence (Q9Y5K5 whole entry): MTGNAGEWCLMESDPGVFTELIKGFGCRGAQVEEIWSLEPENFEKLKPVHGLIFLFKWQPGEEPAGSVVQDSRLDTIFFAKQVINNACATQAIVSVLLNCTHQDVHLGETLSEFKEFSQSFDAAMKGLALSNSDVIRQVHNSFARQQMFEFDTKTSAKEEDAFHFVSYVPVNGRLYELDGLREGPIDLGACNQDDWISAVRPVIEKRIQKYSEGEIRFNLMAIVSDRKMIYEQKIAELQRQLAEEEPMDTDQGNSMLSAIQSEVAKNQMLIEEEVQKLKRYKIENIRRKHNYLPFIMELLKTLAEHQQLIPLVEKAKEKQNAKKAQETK
# 26S proteasome, sequence (P54578 whole entry): as the sequence (P54578 whole entry) above
# 26S proteasome, sequence (Q13200 whole entry partner): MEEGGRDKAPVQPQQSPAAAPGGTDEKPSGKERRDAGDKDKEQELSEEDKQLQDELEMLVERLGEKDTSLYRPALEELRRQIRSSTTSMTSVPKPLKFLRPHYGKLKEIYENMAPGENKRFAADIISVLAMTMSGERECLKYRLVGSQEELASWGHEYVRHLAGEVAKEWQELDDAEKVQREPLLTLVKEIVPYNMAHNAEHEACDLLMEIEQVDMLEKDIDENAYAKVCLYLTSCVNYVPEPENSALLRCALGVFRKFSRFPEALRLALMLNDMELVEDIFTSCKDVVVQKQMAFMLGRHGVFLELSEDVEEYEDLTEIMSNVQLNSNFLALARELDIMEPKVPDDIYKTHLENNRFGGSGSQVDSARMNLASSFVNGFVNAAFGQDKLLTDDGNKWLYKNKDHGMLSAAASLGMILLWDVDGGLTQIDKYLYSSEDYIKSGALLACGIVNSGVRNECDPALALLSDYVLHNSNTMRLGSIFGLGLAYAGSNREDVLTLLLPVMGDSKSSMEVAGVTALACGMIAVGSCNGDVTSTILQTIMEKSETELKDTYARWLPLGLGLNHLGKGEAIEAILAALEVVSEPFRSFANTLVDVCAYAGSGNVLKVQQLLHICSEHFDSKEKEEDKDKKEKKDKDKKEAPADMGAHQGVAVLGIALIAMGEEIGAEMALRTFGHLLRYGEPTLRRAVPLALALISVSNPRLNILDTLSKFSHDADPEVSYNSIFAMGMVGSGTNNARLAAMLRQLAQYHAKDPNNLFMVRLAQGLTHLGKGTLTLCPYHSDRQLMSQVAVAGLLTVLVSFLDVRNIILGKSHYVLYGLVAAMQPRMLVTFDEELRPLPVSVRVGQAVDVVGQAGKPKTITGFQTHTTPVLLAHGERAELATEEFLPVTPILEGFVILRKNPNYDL
# Text: (§1) A BIACORE T200 was used for characterization of the interaction between compounds and USP14, UCHL5 and 26S proteasome. The standard BIACORE protocols were used for NTA chip (Ni/His-tag immobilization) and CM7 chip for compound interaction studies with slight modification described below. The x6 his-tagged USP14 and UCHL5 proteins were coupled to a Series S NTA BIACORE sensor chip in the BIACORE T200 using the his-tags for adherence of the proteins to the surface and an amine coupling procedure for covalent attachment to the chip surface. NTA chip was cleaned using three 500 μM EDTA injections followed by an injection of 500 μM Ni^2+ and activation of the chip surface with EDC/NHS injection according to BIACORE standard methods. Each chip has four separate areas, which were handled separately during the immobilization procedure. Area 1 was used as blank reference surface, area 2–4 was coupled with investigated recombinant proteins or complexes. Proteins were diluted in running buffer (10 mM HEPES, 150 mM NaCl, 0,005% Tween 20) to typically 10 μg/ml before injection(1 mL) over the prepared surfaces. […] The immobilization procedure was followed by injections of compound concentration series of VLX1570. […] Rmax and KD were calculated using Langmuir binding isotherms as provided in the Biacore software.
# myeloma cells = assay: CFSE cell proliferation assay; format: cell-based, human; settings: 0.25 μM or 0.5 μM; 72 hours
# Procedure: Cell proliferation was measured using the Cell trace^TM CSFE cell proliferation kit. Cells were suspended at 5 × 10^5 cells/ml, incubated with CellTrace^TM reagent for 20 minutes and exposed to the drug at indicated concentrations using DMSO as a control. After 72 h cells were collected, washed twice in 1× PBS, fixed with 3,7% formaldehyde and analysed by flow cytometry.
# proteasome DUB activity = tested on: proteasome DUB activity; design: method as in PMID 25854145; settings: in cells; read-out: in vivo IC50 for inhibition of proteasome DUB activity and induction of apoptosis; cited from earlier work
# USP14 [4] = biological target: T1, USP14; assay: SPR binding to recombinant USP14, CM7 chip; settings: protein from Karolinska Institute Protein Science Facility, read-out: USP14(K) KD
# Text: as §1
structure (smiles),measurement,setting,value
C=CC(=O)N1CC/C(=C\c2ccc(F)c([N+](=O)[O-])c2)C(=O)/C(=C/c2ccc(F)c([N+](=O)[O-])c2)C1 [VLX1570],inhibition of a panel of non-proteasomal DUBs,non-proteasomal DUBs,not inhibiting
same,solubility compared to b-AP15,[1],improved solubility
same,IC50,OPM-2,126 ± 3 nM
same,inhibition of USP14 activity in exposed cells,USP14 [2],Inhibition of USP14 activity could be demonstrated
same,survival of the animals,[3],increased the survival
same,VLX1570 binding Relative RU × 100 +/− S.D.,26S proteasome; immobilised 26S proteasome,0.21 ± 0.09
same,VLX1570 binding Relative RU × 100 +/− S.D.,26S proteasome; immobilised 26S proteasome pre-incubated with Ub-VS,0.04 ± 0.01
same,cell cycle arrest (CFSE dilution),myeloma cells,arrest myeloma cells in the cell cycle
same,IC50,proteasome DUB activity,< 1000 nM
same,Kd,USP14 [4],35000 nM
